# Values quoted from earlier work as cited in patent US11407830B2, “Methods of treating cancer with anti-PD-1 antibodies” (TESARO, INC., priority 2017, dated 2022).
# Columns and labels:
# [1] = test system: PARP activity in various cell lines
# [2] = test system: non-small-cell lung cancer, melanoma, and renal-cell cancer; settings: Phase I clinical trial
Compound,"IC50 ([1]; read-out: IC50, PARP activity in cells, hydrogen peroxide DNA damage)","IC90 ([1]; read-out: inhibitory concentration at 90% of control (IC90), PARP activity in cells, hydrogen peroxide DNA damage)",tumor response [2]
"NC(=O)c1cccc2cn(-c3ccc([C@@H]4CCCNC4)cc3)nc12 [Niraparib, (3 S)-3-[4-{7-(aminocarbonyl)-2H-indazol-2-yl}phenyl]piperidine]",~4 nM,~50 nM,–
nivolumab: monoclonal antibody targeting PD-1,–,–,complete or partial responses
